Experimental data published in patent US5652353A, “DNAs encoding tumor necrosis factor-α muteins” (priority 1990, dated 1997).

Columns and labels:
[1] = test system: Hep-2 cells; type: cell-based, human; conditions: in words; accuracy of assay a factor of 3
Method: (§1) The amount of protein was determined by the Biorad (Richmond, Calif., USA) protein dye reagent according to the instructions of the manufacturer. The purity of the TNF muteins was determined by SDS-PAGE. The cytotoxic activity on mouse L929 cells was determined using the standard L929 assay (Ruff and Gifford in "Lymphokines", ed. by E. Pick, Vol. 2, 235-275, Academic Press, 1981, Orlando, USA). The cytotoxicity assay on Hep-2 cells was performed the same way as the L929 assay with the only exception that cycloheximide (50 μg/ml) was added instead of actinomycin D.

[2] = test system: mouse L929 cells; test: Standard L929 cytotoxicity assay; type: cell-based; conditions: relative to TNF-α
Method: as §1

[3] = test system: U937 cells (predominantly but not exclusively p75-TNF-R); test: Competition analysis: displacement of 125I-TNF-α by unlabeled mutant TNF on U937 cells; type: binding, human; conditions: for reduction of binding affinity for p75-TNF-R: relative to its binding affinity to p55-TNF-R
Method: (§2) Hep-2 [ATCC No. CCL 23], U937 [ATCC No. CRL 1593] and RAJI [ATCC No. CCL 86] cells were grown in RPMI 1640 medium, supplemented with 10% (v/v) inactivated .fetal calf serum, L-glutamine (2 mM), sodium pyruvate (1 mM), 2-mercaptoethanol (5×10^-5 M), 1% of a 100× mixture of non-essential amino acids [Gibro Laboratories, Paisley, GB] and gentamycine ([…]). The non-adherent cells (U937 and RAJI) were harvested after reaching a density of 1×10^6 cells/ml. For binding experiments, the adherent Hep-2 cells were grown to confluency, trypsinized, collected and seeded in large. Petri dishes (150 cm^2) at a density of 2.5×10^6 cells/ml. Subsequently, the dishes were placed in a CO2 -incubator overnight. Because Hep-2 cells are not strongly adherent, the cells could be harvested the same way as the non-adherent cells. Dulbecco's medium, supplemented with 10% inactivated newborn calf serum was used for L929 cell growth. […] A ten well dilution series of unlabeled mutant TNF ([…] to 0.004 μM) in concentration steps in multiples of 2 was set up in a microtiterplate. […] After addition of 2×10^6 cells, the total volume was 0.2 ml/well. The medium of incubation, reaction conditions and isolation of the cells were exactly the same as described above for the Scatchard analysis experiments. […] The following experimental data were used for such calculations: From each experiment shown in these tables, the KD value was calculated using the programm of Mc. Pherson et al. (1985).

[4] = test system: human p55-TNF-R; test: Filter binding competition of 125I-TNFα on purified p55-TNF-R from HL60 cells; conditions: with respect to TNFα
Method: (§3) The filters were blocked with blocking buffer (50 mM Tris, 140 mM NaCl, 5 mM EDTA, 0.02% NaN3, 1% defatted milk powder) for 1.5 hours at room temperature. […] The filters were washed with blocking buffer (2× for 5 min.) and with H2 O (1× for 5 min.), air dried, and counted in a γ-counter.

[5] = test system: Hep-2 cells (only carry p55-TNF-R); test: Competition analysis: displacement of 125I-TNF-α by unlabeled mutant TNF on Hep-2 cells; type: binding, human; conditions: for Mean dpm: Table C
Method: as §2

[6] = test system: human p75-TNF-R; test: Filter binding competition of 125I-TNFα on purified p75-TNF-R from HL60 cells; conditions: for IC50: competition with 125I-TNFα; for Decrease in Affinity: with respect to TNFα
Method: as §3

Ser^29 -TNFα: TNF-α mutein with serine substituted at position 29, SEQ ID No: 4
biological activity (specific activity) on Hep-2 cells [1]: largely retained
decrease of biological activity on L929 cells (factor) [2]: more than 100
binding affinity for p75-TNF-R as share of its binding affinity to p55-TNF-R [3]: about 2%
Mean dpm ([3]; Table A, experiment 1, U937 cells, concentration of mutant 1 × 10^-6 [mol]): 632 dpm
Mean dpm ([3]; Table A, experiment 1, U937 cells, concentration of mutant 1 × 10^-9 [mol]): 1869 dpm
Mean dpm ([3]; Table A, experiment 1, U937 cells, concentration of mutant 1.25 × 10^-7 [mol]): 1200 dpm
Mean dpm ([3]; Table A, experiment 1, U937 cells, concentration of mutant 2 × 10^-6 [mol]): 533 dpm
Mean dpm ([3]; Table A, experiment 1, U937 cells, concentration of mutant 2 × 10^-9 [mol]): 1779 dpm
Mean dpm ([3]; Table A, experiment 1, U937 cells, concentration of mutant 3.2 × 10^-8 [mol]): 1415 dpm
Mean dpm ([3]; Table A, experiment 1, U937 cells, concentration of mutant 4 × 10^-9 [mol]): 1719 dpm
Mean dpm ([3]; Table A, experiment 1, U937 cells, concentration of mutant 5 × 10^-7 [mol]): 949 dpm
Mean dpm ([3]; Table A, experiment 1, U937 cells, concentration of mutant 6.4 × 10^-8 [mol]): 1320 dpm
Mean dpm ([3]; Table A, experiment 1, U937 cells, concentration of mutant 8 × 10^-9 [mol]): 1708 dpm
Mean dpm ([3]; Table A, experiment 1, U937 cells, concentration of mutant […] 10^-7 [mol]): 983 dpm
Mean dpm ([3]; Table A, experiment 1, U937 cells, concentration of mutant […] 10^-8 [mol]): 1575 dpm
Mean dpm ([3]; Table A, experiment 2, U937 cells, concentration of mutant 1 × 10^-6 [mol]): 263 dpm
Mean dpm ([3]; Table A, experiment 2, U937 cells, concentration of mutant 1.2 × 10^-7 [mol]): 413 dpm
Mean dpm ([3]; Table A, experiment 2, U937 cells, concentration of mutant 1.5 × 10^-8 [mol]): 541 dpm
Mean dpm ([3]; Table A, experiment 2, U937 cells, concentration of mutant 2 × 10^-6 [mol]): 238 dpm
Mean dpm ([3]; Table A, experiment 2, U937 cells, concentration of mutant 3 × 10^-8 [mol]): 572 dpm
Mean dpm ([3]; Table A, experiment 2, U937 cells, concentration of mutant 4 × 10^-9 [mol]): 635 dpm
Mean dpm ([3]; Table A, experiment 2, U937 cells, concentration of mutant 5 × 10^-7 [mol]): 319 dpm
Mean dpm ([3]; Table A, experiment 2, U937 cells, concentration of mutant 6 × 10^-8 [mol]): 489 dpm
Mean dpm ([3]; Table A, experiment 2, U937 cells, concentration of mutant 8 × 10^-9 [mol]): 603 dpm
Mean dpm ([3]; Table A, experiment 2, U937 cells, concentration of mutant […] 10^-7 [mol]): 380 dpm
reduction of binding affinity for p75-TNF-R [3]: approximately 50 fold
Decrease in Affinity [4]: 8.2 fold
Mean dpm ([5]; experiment 1, Hep-2 cells, concentration of mutant 1 × 10^-6): 359 dpm
Mean dpm ([5]; experiment 1, Hep-2 cells, concentration of mutant 1 × 10^-9): 799 dpm
Mean dpm ([5]; experiment 1, Hep-2 cells, concentration of mutant 1.25 × 10^-7): 379 dpm
Mean dpm ([5]; experiment 1, Hep-2 cells, concentration of mutant 2 × 10^-6): 383 dpm
Mean dpm ([5]; experiment 1, Hep-2 cells, concentration of mutant 2 × 10^-9): 677 dpm
Mean dpm ([5]; experiment 1, Hep-2 cells, concentration of mutant 3.2 × 10^-8): 442 dpm
Mean dpm ([5]; experiment 1, Hep-2 cells, concentration of mutant 4 × 10^-9): 564 dpm
Mean dpm ([5]; experiment 1, Hep-2 cells, concentration of mutant 5 × 10^-7): 437 dpm
Mean dpm ([5]; experiment 1, Hep-2 cells, concentration of mutant 6.4 × 10^-8): 446 dpm
Mean dpm ([5]; experiment 1, Hep-2 cells, concentration of mutant 8 × 10^-9): 510 dpm
Mean dpm ([5]; experiment 1, Hep-2 cells, concentration of mutant […] 10^-7): 374 dpm
Mean dpm ([5]; experiment 1, Hep-2 cells, concentration of mutant […] 10^-8): 451 dpm
Mean dpm ([5]; experiment 2, Hep-2 cells, concentration of mutant 1 × 10^-6): 193 dpm
Mean dpm ([5]; experiment 2, Hep-2 cells, concentration of mutant 1.2 × 10^-7): 239 dpm
Mean dpm ([5]; experiment 2, Hep-2 cells, concentration of mutant 1.5 × 10^-8): 253 dpm
Mean dpm ([5]; experiment 2, Hep-2 cells, concentration of mutant 2 × 10^-6): 238 dpm
Mean dpm ([5]; experiment 2, Hep-2 cells, concentration of mutant 3 × 10^-8): 235 dpm
Mean dpm ([5]; experiment 2, Hep-2 cells, concentration of mutant 4 × 10^-9): 273 dpm
Mean dpm ([5]; experiment 2, Hep-2 cells, concentration of mutant 5 × 10^-7): 211 dpm
Mean dpm ([5]; experiment 2, Hep-2 cells, concentration of mutant 6 × 10^-8): 207 dpm
Mean dpm ([5]; experiment 2, Hep-2 cells, concentration of mutant 8 × 10^-9): 240 dpm
binding constant (KD) with Hep-2 cells compared with TNF-α ([5]; in words): almost the same as TNF-α
IC50 [6]: 2.5 µg/mL
Decrease in Affinity [6]: 250 fold

Trp^32 -TNFα: TNF-α mutein with tryptophan substituted at position 32, SEQ ID No: 9
biological activity (specific activity) on Hep-2 cells [1]: largely retained
decrease of biological activity on L929 cells (factor) [2]: more than 100
binding affinity for p75-TNF-R as share of its binding affinity to p55-TNF-R [3]: about 3%
Mean dpm ([3]; Table B, experiment 1, U937 cells, concentration of mutant 1 × 10^-6): 777 dpm
Mean dpm ([3]; Table B, experiment 1, U937 cells, concentration of mutant 1 × 10^-9): 1917 dpm
Mean dpm ([3]; Table B, experiment 1, U937 cells, concentration of mutant 1.25 × 10^-7): 1166 dpm
Mean dpm ([3]; Table B, experiment 1, U937 cells, concentration of mutant 1.5 × 10^-8): 1488 dpm
Mean dpm ([3]; Table B, experiment 1, U937 cells, concentration of mutant 2 × 10^-6): 628 dpm
Mean dpm ([3]; Table B, experiment 1, U937 cells, concentration of mutant 2 × 10^-9): 1698 dpm
Mean dpm ([3]; Table B, experiment 1, U937 cells, concentration of mutant 3 × 10^-8): 1377 dpm
Mean dpm ([3]; Table B, experiment 1, U937 cells, concentration of mutant 4 × 10^-9): 1655 dpm
Mean dpm ([3]; Table B, experiment 1, U937 cells, concentration of mutant 5 × 10^-7): 953 dpm
Mean dpm ([3]; Table B, experiment 1, U937 cells, concentration of mutant 6 × 10^-8): 1333 dpm
Mean dpm ([3]; Table B, experiment 1, U937 cells, concentration of mutant 8 × 10^-9): 1585 dpm
Mean dpm ([3]; Table B, experiment 1, U937 cells, concentration of mutant […] 10^-7): 1026 dpm
Mean dpm ([3]; Table B, experiment 2, U937 cells, concentration of mutant 1.10^-6): 357 dpm
Mean dpm ([3]; Table B, experiment 2, U937 cells, concentration of mutant 1.2 × 10^-7): 508 dpm
Mean dpm ([3]; Table B, experiment 2, U937 cells, concentration of mutant 1.5 × 10^-8): 636 dpm
Mean dpm ([3]; Table B, experiment 2, U937 cells, concentration of mutant 2 × 10^-6): 294 dpm
Mean dpm ([3]; Table B, experiment 2, U937 cells, concentration of mutant 3 × 10^-8): 585 dpm
Mean dpm ([3]; Table B, experiment 2, U937 cells, concentration of mutant 4 × 10^9): 653 dpm
Mean dpm ([3]; Table B, experiment 2, U937 cells, concentration of mutant 5 × 10^-7): 422 dpm
Mean dpm ([3]; Table B, experiment 2, U937 cells, concentration of mutant 6 × 10^-8): 546 dpm
Mean dpm ([3]; Table B, experiment 2, U937 cells, concentration of mutant 8 × 10^-9): 629 dpm
Mean dpm ([3]; Table B, experiment 2, U937 cells, concentration of mutant […] 10^-7): 479 dpm
Mean dpm ([3]; Table B, experiment 3 (125I-TNF batch 2), U937 cells, concentration of mutant 1 × 10^-6): 1192 dpm
Mean dpm ([3]; Table B, experiment 3 (125I-TNF batch 2), U937 cells, concentration of mutant 1.25 × 10^-7): 2387 dpm
Mean dpm ([3]; Table B, experiment 3 (125I-TNF batch 2), U937 cells, concentration of mutant 1.5 × 10^-8): 3620 dpm
Mean dpm ([3]; Table B, experiment 3 (125I-TNF batch 2), U937 cells, concentration of mutant 2 × 10^-6): 814 dpm
Mean dpm ([3]; Table B, experiment 3 (125I-TNF batch 2), U937 cells, concentration of mutant 3 × 10^-8): 3275 dpm
Mean dpm ([3]; Table B, experiment 3 (125I-TNF batch 2), U937 cells, concentration of mutant 4 × 10^-9): 4759 dpm
Mean dpm ([3]; Table B, experiment 3 (125I-TNF batch 2), U937 cells, concentration of mutant 5 × 10^-7): 1472 dpm
Mean dpm ([3]; Table B, experiment 3 (125I-TNF batch 2), U937 cells, concentration of mutant 6 × 10^-8): 3034 dpm
Mean dpm ([3]; Table B, experiment 3 (125I-TNF batch 2), U937 cells, concentration of mutant 8 × 10^-9): 4041 dpm
Mean dpm ([3]; Table B, experiment 3 (125I-TNF batch 2), U937 cells, concentration of mutant […] 10^-7): 1981 dpm
reduction of binding affinity for p75-TNF-R [3]: approximately 33 fold
Decrease in Affinity [4]: 1.5 fold
IC50 [6]: 5 µg/mL
Decrease in Affinity [6]: 500 fold
